{"source": "paper PMC12424289", "about": "“Programmable Nanostructure Assembly of a Paclitaxel Derivative Enables Tunable Anticancer Therapy via Hydrogen Bond Engineering” (ACS Nano, 2025)", "key": {"Stability in rat plasma": {"test": "Stability in rat plasma", "format": "in vitro ADME", "method": "For plasma stability studies, a PTP or PTP@PEG dispersion (1.2 mg·mL^–1, PTP-equivalent) was diluted with plasma to a final concentration of 100.0 μg·mL^–1. Plasma was obtained from male rat blood by centrifugation (1600 × g, 15 min). Aliquots (100 μL each) were incubated at 37 °C with agitation at 100 rpm, and samples were collected at designated time points in triplicate. Proteins were precipitated by adding 200 μL acetonitrile, followed by vortex mixing and centrifugation at 17 000 rpm and 4 °C for 30 min. The resulting supernatants were analyzed by HPLC."}, "subcutaneous 4T1 tumors": {"system": "subcutaneous 4T1 tumors", "test": "Antitumor efficacy and safety in subcutaneous 4T1 tumor model", "format": "in vivo", "settings": "4T1 model, iv 10.0 mg·kg^–1 PTX equivalent, five doses", "method": "For pharmacodynamic evaluation, female Balb/c mice (18–22 g, n = 6 per group) bearing subcutaneous 4T1 tumors (approximately 50 mm^3) received intravenous injections every other day for five doses at 10.0 mg·kg^–1 (PTX equivalent). Tumor volume and body weight were monitored daily until day 14, when tumors were excised and photographed. At study termination (day 14), major organs (heart, liver, spleen, lungs, and kidneys) were collected from these mice. The organs were fixed in 4% paraformaldehyde, dehydrated with ethanol, and cleared with xylene. Afterward, the tissues were embedded in paraffin wax and sectioned after dipping wax operation at 60 °C. The sections were then stained with hematoxylin and eosin for histological examination."}, "[1]": {"test": "Biodistribution in 4T1 tumor-bearing mice", "format": "in vivo, Balb/c mice", "settings": "iv 10.0 mg·kg^–1", "method": "For plasma samples, 50 μL of plasma was mixed with 100 μL of a docetaxel acetonitrile solution (15 ng·mL^–1) for protein precipitation. The mixture was vortexed and then centrifuged at 4 °C, 17 000 rpm for 30 min. For tissue samples, mice were euthanized at specified time points, and tissues were harvested and rinsed with saline. Two kidneys, the entire heart, spleen, lung, tumor, and 150–200 mg of liver were placed in grinding tubes. Saline was added at a ratio of 1:5 (m/v), and the tissues were ground using a freezing grinder (Jingxin, China) at 4 °C. Next, 100 μL of docetaxel acetonitrile solution (15 ng·mL^–1) was added to 50 μL of the tissue homogenate. […] The supernatants for both plasma and tissue samples were analyzed by LC-MS as described below.\nThe concentrations of PTP and PTX in plasma and tissue samples were determined using liquid chromatography–mass spectrometry (LC-MS) with a G6470A system (Agilent, USA) equipped with a C18 column (2.1 × 100 mm, 2.7 μm, Agilent, USA). […]\nPharmacokinetic features were evaluated in Sprague–Dawley rats (200–300 g, n = 6 per group) following a single intravenous administration of PTX solution (1.0 mg·mL^–1), PTP (1.2 mg·mL^–1), or PTP@PEG (1.2 mg·mL^–1) at a dose equivalent to 3.0 mg·kg^–1 PTX. […] Biodistribution was assessed in female Balb/c mice (18–22 g; n = 6 per group) bearing subcutaneous 4T1 tumors (target volume 200–300 mm^3). […]"}, "[2]": {"system": "human colon HCT116-Luc cells", "test": "CCK8 antiproliferation assay, HCT116-Luc", "format": "cell-based", "settings": "48 h treatment", "method": "(§1) The mouse breast cancer cell line 4T1 and the human ovarian cancer cell line SKOV3 were cultured in RPMI 1640 medium supplemented with 10% fetal bovine serum, 100 units·mL^–1 penicillin, and 100 μg·mL^–1 streptomycin. The human lung cancer cell line A549 and the luciferase-expressing human colorectal carcinoma cell line HCT116-Luc were cultured in high-glucose DMEM medium supplemented with 10% fetal bovine serum, 100 units·mL^–1 penicillin, and 100 μg·mL^–1 streptomycin. All cell lines were maintained at 37 °C in a Steri-Cycle 371 incubator (Thermo Scientific, USA) with a humidified atmosphere of 5% CO2. Only cells between passages 5 and 15 were used for cell-based experiments.\n(§2) The antiproliferative activity of PTP was evaluated using the Cell Counting Kit-8 (CCK8) assay. PTX solution served as a positive control. Cell suspensions were prepared at a density of 3 × 10^4 cells·mL^–1 and seeded in 96-well plates at a volume of 100 μL per well. The plates were incubated for 24 h to allow cell attachment and growth. Subsequently, the culture media were replaced with fresh media containing varying concentrations of PTX or PTP solutions (100 μL per well), and the cells were incubated for an additional 48 h (n = 3). Control wells received fresh culture media alone (n = 3). […] Finally, the absorbance was measured at 450 nm using a microplate reader (Synergy H1, BioTek, USA). […]"}, "human lung A549 cells": {"system": "human lung A549 cells", "test": "CCK8 antiproliferation assay, A549", "format": "cell-based", "settings": "A549, 48 h treatment", "method": "as §1, §2"}}}
{"smiles": "CC(=O)O[C@H]1C(=O)[C@@]2(C)[C@H]([C@H](OC(=O)c3ccccc3)[C@]3(O)C[C@H](OC(=O)[C@H](OC(=O)CCP(=O)(O)O)[C@@H](NC(=O)c4ccccc4)c4ccccc4)C(C)=C1C3(C)C)[C@]1(OC(C)=O)CO[C@@H]1C[C@@H]2O", "note": "[PTP, PTX-2’–OOC-P]", "values": [{"measurement": "degradation faster than PTP@PEG", "setting": "Stability in rat plasma; rat plasma, 37 °C", "value": 1.2, "unit": "fold"}, {"measurement": "degradation rate constant (k) in plasma", "setting": "Stability in rat plasma; rat plasma, 37 °C, 100 μg·mL^–1 PTP-equivalent", "value": 0.23, "unit": "h^–1"}, {"measurement": "parent compound left", "setting": "Stability in rat plasma; rat plasma, 37 °C, after 10 h", "value": 10.4, "unit": "%"}, {"measurement": "degraded in plasma", "setting": "Stability in rat plasma; within 10 h, 100.0 μg·mL^–1", "value": "approximately 90%"}, {"measurement": "safety: body weight and renal histology", "setting": "subcutaneous 4T1 tumors", "value": "renal inflammation"}, {"measurement": "biodistribution, organs of accumulation", "setting": "[1]", "value": "primarily accumulated in the liver and kidney"}, {"measurement": "IC50", "setting": "[2]", "value": 12.5, "unit": "nM"}, {"measurement": "IC50", "setting": "human lung A549 cells", "value": 13.2, "unit": "nM"}]}
